Values after ≈ are worked out from the molar mass of the structure shown.

The assay relates to M. tuberculosis H37Rv growth inhibition. The experiment in a line: Mycobacterium tuberculosis H37Rv growth inhibition, putative kinase inhibitor library, confirmatory dose response (AID 2842).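 Further: bacteria incubated one week before Alamar blue readout.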

Regarding `COc1ccccc1C(=O)Nc1nnc(-c2ccc(Cl)cc2)o1`, the IC90 was 3.86 µg/mL (≈ 11.7 µM).
With `O=C(Nc1nnc(-c2ccc(Br)cc2)o1)c1ccc(S(=O)(=O)N2CCOCC2)cc1` the figure was 5.28 µg/mL (≈ 10.7 µM); with `COc1ccc2nc(NNC(=O)c3cccc(F)c3)sc2c1`, 15.8 µg/mL (≈ 49.8 µM); with `COc1ccc(NC(=O)c2cccc3nc4ccccc4nc23)c(OC)c1`, 4.07 µg/mL (≈ 11.3 µM).
With `O=C(/C=C/c1ccccc1)Nc1nnc(-c2ccc3c(c2)CCCC3)o1` the figure was 1.67 µg/mL (≈ 4.83 µM); with `O=C(Nc1nnc(-c2ccc3c(c2)CCCC3)o1)c1ccc([N+](=O)[O-])o1`, 10.6 µg/mL (≈ 29.9 µM).
As for `CCCCOc1ccc(C(=O)Nc2nnc(-c3cc(C)ccc3C)o2)cc1`, the figure is 25.4 µg/mL (≈ 69.5 µM); as for `COc1ccc(C2c3cccn3CCN2C(=O)Nc2ccc(Cl)cc2)cc1` (stereo not given), 9.87 µg/mL (≈ 25.8 µM); as for `CC(C)(C)c1ccc(C(=O)N2CC(=O)Nc3ccc(Cl)cc3C2c2ccc(F)cc2)cc1` (stereo not given), 9.95 µg/mL (≈ 22.1 µM).
In the case of `COc1ccc(C)c2sc(NNC(=O)c3cccc(F)c3)nc12`, the IC90 was 32.6 µg/mL (≈ 98.4 µM).
With `O=C(Nc1nnc(-c2ccc3c(c2)OCCO3)o1)c1ccccc1Br` the figure was 12.6 µg/mL (≈ 31.4 µM).
With `N#C/C(=C\Nc1ccccc1)c1nc2ccccc2[nH]1` the figure was 3.25 µg/mL (≈ 12.5 µM); with `CCOc1cccc2sc(N3CCc4ccccc4C3)nc12`, 15.3 µg/mL (≈ 49.2 µM); with `CCOC(=O)C(C)Sc1ncnc2c1cnn2-c1ccc(F)cc1` (stereo not given), 4.73 µg/mL (≈ 13.7 µM).
As for `COc1ccc(-c2nnc(NC(=O)c3ccccc3Br)o2)cc1`, the figure is 82.2 µg/mL (≈ 220 µM); as for `COc1ccc2c(c1)c1nnc(-c3ccc(C)cc3)c-1cn2Cc1ccccc1OC`, 4.23 µg/mL (≈ 10.3 µM); as for `COc1cc(OC)cc(C(=O)N(CCCn2ccnc2)c2nc3cc(C)cc(C)c3s2)c1`, 6.63 µg/mL (≈ 14.7 µM).
For the molecule `Cc1ccc(-c2nnc(NC(=O)c3ccco3)o2)c(C)c1`, the IC90 was 4.51 µg/mL (≈ 15.9 µM).
As for `COc1ccc2nc(Nc3nc4c(s3)CCCC4)sc2c1`, the 90% effect concentration (IC90) was 20.7 µg/mL (≈ 65.1 µM).
As for `CCOC(=O)N1CCc2c(sc(NC(=O)c3ccccc3)c2C(N)=O)C1`, the figure is 1.84 µg/mL (≈ 4.93 µM).
As for `COc1ccc(-c2nnc(NC(=O)C(C)C)o2)cc1`, the figure is 19.9 µg/mL (≈ 76.3 µM); as for `CCCCOc1ccc(C(=O)Nc2nnc(-c3ccncc3)o2)cc1`, 3.42 µg/mL (≈ 10.1 µM); as for `Cc1cc(C)c2sc(N3CCCC3)nc2c1`, 1.75 µg/mL (≈ 7.53 µM).
As to `Cc1ccccc1Nc1nc(-c2cccnc2)nc2ccccc12`, the IC90 is 7.35 µg/mL (≈ 23.5 µM).
As for `Cc1ccc(C)c(-c2nnc(NC(=O)c3ccc(C#N)cc3)o2)c1`, the figure is 23.1 µg/mL (≈ 72.5 µM); as for `CCCCC(=O)Nc1nnc(-c2ccc3c(c2)CCCC3)o1`, 3.04 µg/mL (≈ 10.2 µM).
With `Cc1cccc2sc(NNC(=O)c3cc4ccccc4oc3=O)nc12` the figure was 2.94 µg/mL (≈ 8.37 µM).
As for `CCOc1cccc2sc(NC(=O)c3ccc(Cl)cc3Cl)nc12`, the figure is 11.6 µg/mL (≈ 31.5 µM); as for `CCCCN1C(=O)c2cccc3c(NC(=O)c4ccc([N+](=O)[O-])s4)ccc1c23`, 22.7 µg/mL (≈ 57.3 µM).
Regarding `NNC(=O)c1ccc(-c2ccccc2Cl)o1`, the IC90 is 3.96 µg/mL (≈ 16.7 µM).
As for `Cc1ccccc1C(=O)N=Nc1c(O)[nH]c2ccc(Br)cc12`, the IC90 is 30.8 µg/mL (≈ 85.9 µM).
With `COc1ccccc1Cn1cc2c(-c3ccc(F)cc3)nnc-2c2cc(C)ccc21` the figure was 49.2 µg/mL (≈ 124 µM); with `COc1ccc(-c2noc(-c3cc4ccccc4oc3=Nc3ccc(Br)cc3)n2)cc1`, 13.3 µg/mL (≈ 28.1 µM).
With `Cc1ccc(-c2nnc(NC(=O)c3ccc(S(=O)(=O)N(C)C)cc3)o2)c(C)c1` the figure was 41.1 µg/mL (≈ 103 µM).
For the molecule `O=C(Nc1nnc(-c2ccc(Br)cc2)o1)c1ccccc1F`, the IC90 is 4.4 µg/mL (≈ 12.1 µM).
For `c1ccc2c(c1)CCN(c1nc3cc4c(cc3s1)OCCO4)C2`, the IC90 is 16 µg/mL (≈ 49.4 µM).
As for `O=C(NNc1nc2ccc(Cl)cc2s1)c1cc(-c2cccs2)nc2ccccc12`, the figure is 30.9 µg/mL (≈ 70.8 µM); as for `O=C(Nc1nnc(-c2ccc(F)cc2)o1)c1ccc(Cl)cc1`, 18.3 µg/mL (≈ 57.5 µM).
With `COc1ccccc1Nc1nc(NCc2ccco2)c2ccccc2n1` the figure was 5.62 µg/mL (≈ 16.2 µM); with `Cc1cccc2sc(N(CCCn3ccnc3)C(=O)c3ccco3)nc12`, 0.83 µg/mL (≈ 2.26 µM).
As for `O=C(Nc1nnc(-c2ccc(Br)cc2)o1)C1COc2ccccc2O1` (stereo not given), the figure is 7.27 µg/mL (≈ 18.1 µM); as for `Cc1nnc(SCC(=O)Nc2ccc3c(c2)OCCO3)n(N)c1=O`, 23.1 µg/mL (≈ 66.2 µM).
On to `COC(=O)c1c(C)oc2ccc(OCC(=O)OC(C)C)cc12`, for which the IC90 was 7.05 µg/mL (≈ 23 µM).
With `COc1cccc(-c2csc(NC(=O)c3ccc4c(c3)OCCO4)n2)c1` the figure was 14.3 µg/mL (≈ 39 µM).
Consider `COc1ccc(-c2nnc3c4cc(OC)c(OC)cc4n(Cc4ccc(C)cc4)cc2-3)cc1`, for which the IC90 was 95.4 µg/mL (≈ 217 µM).
Regarding `Cc1ccc(-c2nnc(NC(=O)c3c(F)cccc3F)o2)c(C)c1`, the IC90 is 1.25 µg/mL (≈ 3.8 µM).
As for `O=C(Nc1nnc(-c2ccc3c(c2)OCCO3)o1)c1ccccc1Cl`, the figure is 4.5 µg/mL (≈ 12.6 µM).
Regarding `Cc1ccc(Nc2nc(N3CCN(c4ccccc4)CC3)nc3nccnc23)cc1C`, the IC90 is 32 µg/mL (≈ 77.7 µM).
Turning to `COC(=O)CSCC(=O)Nc1nnc(-c2cccc(C)c2)s1`, the IC90 was 23.9 µg/mL (≈ 70.8 µM).
With `CCCCOc1cccc(C(=O)Nc2nnc(-c3cc(C)ccc3C)o2)c1` the figure was 12.4 µg/mL (≈ 33.9 µM).

The values above are taken from PubChem BioAssay AID2842 (Southern Research Institute, 2010).
